According to US20130071328A1, “Propynoic Acid Carbamoyl Methyl-Amides and Pharmaceutical Compositions and Methods Based Thereon” (UNIVERSITY OF SOUTHERN CALIFORNIA, priority 2011, published 2013):

What was measured:
p53 = assay: Western blotting of p53 protein level; format: cell-based, human; settings: MDA-MB-435 cells, 1 μM, 24 to 72 hours
Procedure: (§1) Cells were detached using 1×trypsin-EDTA solution and collected by centrifugation at 1200 rpm for 5 min. Cells were then lysed in 80 μL of 1× cell lysis buffer (50 mM Tris-HCl, pH 7.5, 150 mM NaCl, and 1% NP-40) and pelleted by centrifugation at 14,000 rpm for 20 min at 4° C. Protein concentration of the whole cell lysates was measured using BCA protein assay and equal amounts of total protein were resolved on a 10% tris-glycine gel via SDS-PAGE. The separated proteins were electro-blotted onto nitrocellulose membrane and blocked in 5% BSA/PBS for 1 h at room temperature. The membrane was probed with anti-p53 (SC-126, Santa Cruz Biotechnology Inc.), anti-caspase 9 (Cat. no. 9508; Cell Signaling Technology), anti-a-tubulin (SC-5286, Santa Cruz Biotechnology Inc.), and anti-GAPDH(Y3322GAPDH, Biochain Institute, Inc.) antibodies at 4 C overnight. Horseradish peroxidase-conjugated secondary antibodies (Invitrogen, Carlsbad, Calif.) in combination with SuperSignal Dura (ThermoFisher, Rockford, Ill.) enhanced chemiluminescence (ECL) solutions were used to visualize proteins of interest with a ChemiDoc Imaging system (Bio-Rad, Hercules, Calif.).

[1] = tested on: HT29 colon cancer cell line; assay: MTT cytotoxicity assay, HT29; format: cell-based; settings: Homo sapiens, HT-29, 72 h exposure
Summary of the method: (§2)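 Cells were seeded, allowed to attach overnight, then exposed continuously to drug for 72 h. MTT (0.5 mg/mL final) was added for 4 h at 37 °C, formazan was dissolved in DMSO and absorbance read at 570 nm. IC50 came from log(drug concentration) versus percent cells killed, triplicate.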

SOD1 = assay: Kinexus 628-antibody microarray; format: cell-based, human; settings: MDA-MB-435 cells, 0.1 μM, 24 h
Source text: To better understand the mechanisms of action of this class of novel PACMA compounds, we subjected cell lysates from untreated and compound 1-treated MDA-MB-435 cells to the Kinexus 628-antibody microarray analysis in search of potential signaling molecules; 350 pan-specific and 270 phospho-site antibodies were included to track changes in protein expression and phosphorylation status. The cell lysates were run in parallel on the Kinexus antibody chip and the differential binding of dye-labeled proteins was detected and quantified. Proteins with significant expression changes were then identified and used as the basis for signaling pathway interpretation.
MDA-MB-435 cells were treated with 0.1 μM compound 1 for 24 h. After treatment, cells were washed with ice-cold PBS to remove residual medium. Cells were then lysed in 200 μL of lysis buffer (20 mM MOPS, pH 7.0, 2 mM EGTA, 5 mM EDTA, 30 mM sodium fluoride, 60 mM β-glycerophosphate, pH 7.2, 20 mM sodium pyrophosphate, 1 mM sodium orthovanadate, 1 mM phenylmethylsulfonylfluoride, 3 mM benzamidine, 5 μM pepstatin A, 10 μM leupeptin, 1% Triton X-100, 1 mM dithiothreitol) and collected into a microcentrifuge tube. […] The supernatants were then transferred to a cleanmicrocentrifuge tube, and the protein concentrations were measured using BCA protein assay. […]

[2] = tested on: HCT116 p53^−/− colon cancer cell line; assay: MTT cytotoxicity assay, HCT116 p53-/-; format: cell-based; settings: Homo sapiens, HCT-116, 72 h exposure
Summary of the method: as §2

MDA-MB-435 cells [3] = assay: Apoptosis assay, annexin V/propidium iodide flow cytometry; format: cell-based, human
Procedure: To quantify drug-induced apoptosis, annexin V/propidium iodide staining was performed and analyzed by flow cytometry. MDA-MB-435 cells were treated with 10 μM compound 1, 2, or 4 for 24 and 48 h. After treatment, both floating and adherent cells were combined and subjected to annexin V/propidium iodide staining using an annexin V-FITC apoptosis detection kit (Oncogene Research Products, San Diego, Calif.) according to manufacturer's recommendations. Untreated control cells (48 h) were maintained in parallel to drugtreated groups. Double staining was used to distinguish between viable, early apoptotic, and necrotic or late apoptotic cells. The resulting fluorescence (FITC-A channel for green fluorescence and PE-A channel for red fluorescence) was measured by flow cytometry using a BD LSRII flow cytometer (BD Biosciences, San Jose, Calif.).

[4] = tested on: HCT116 p53^+/+ colon cancer cell line; assay: MTT cytotoxicity assay, HCT116 p53+/+; format: cell-based; settings: Homo sapiens, HCT-116, 72 h exposure
Summary of the method: as §2

caspase-9 = assay: Western blotting of full-length caspase-9 protein level; format: cell-based, human; settings: MDA-MB-435 cells, 1 μM, after 24 hours, maintained up to 72 hours
Procedure: as §1

[5] = tested on: UMUC3 bladder cancer cell line; assay: MTT cytotoxicity assay, UMUC3; format: cell-based; settings: Homo sapiens, 72 h exposure
Summary of the method: as §2

[6] = tested on: doxorubicin-resistant NCI/ADR-RES ovarian cancer cell line; assay: Cytotoxicity assay, NCI/ADR-RES; format: cell-based; settings: Homo sapiens, MTT, 72 h exposure (Table 2)
Summary of the method: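 Cells attached overnight, then continuously exposed to drug for 72 h. MTT (0.5 mg/mL final) added 4 h at 37 °C, formazan dissolved in DMSO, absorbance at 570 nm, triplicates; IC50 from log concentration versus % cells killed.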

[7] = tested on: 5637 bladder cancer cell line; assay: MTT cytotoxicity assay, 5637; format: cell-based, human; settings: Homo sapiens, 72 h exposure
Summary of the method: as §2

MDA-MB-435 cells [8] = assay: Mitochondrial superoxide production (MitoSOX Red); format: cell-based, human; settings: IC50 or 3×IC50, 24 hours
Procedure: After drug treatments, a solution of 5 μM MitoSOX Red mitochondrial superoxide indicator (Invitrogen, Carlsbad, Calif.) was added, and cells were incubated for 10 min at 37° C. Cells were then washed three times with Hank's balanced salt solution (HBSS) to remove excess MitoSOX. After washing, cells were either observed under the fluorescence microscope or collected by trypsinization, washed twice with HBSS, and measured for superoxide production using a BD LSRII flow cytometer (BD Biosciences, San Jose, Calif., USA). Data were analyzed with the BD FACSDiva software package (BD Biosciences, San Jose, Calif., USA).

[9] = tested on: HEY ovarian cancer cell line; assay: Cytotoxicity assay, HEY; format: cell-based; settings: Homo sapiens; MTT, 72 h exposure (Table 2)
Summary of the method: as §2

In the case of `C#CC(=O)N(c1cc(OC)cc(OC)c1)C(C(=O)NC1CCCCC1)c1ccc(OC)cc1` (stereo not drawn) [Compound 1, N-[2-(Cyclohexylamino)-1-(4-methoxyphenyl)-2-oxoethyl]-N-(3,5-dimethoxyphenyl)Propynamide], the p53 protein level (p53) is reported as “up-regulated”, the IC50 [1] is reported as 6.3 ± 1.5 µM and the SOD1 expression (SOD1) is reported as “up-regulated”. For the same molecule, the IC50 [2] was 11 µM, the “induction of early apoptosis” value (MDA-MB-435 cells [3]; 10 μM, 24 hours) was “failed to induce early apoptosis” and the “increase in early apoptotic cells” value (MDA-MB-435 cells [3]; 10 μM, 48 h) was 8%. The “percentage of late apoptotic cells” value (MDA-MB-435 cells [3]; 10 μM, 48 hours) was 35%, the induction of apoptosis (MDA-MB-435 cells [3]; 24 and 48 hours) was “induce apoptosis” and the IC50 [4] was 12.5 ± 2.1 µM. For the same molecule, the “decrease in full-length caspase-9 protein level” value (caspase-9) was 2 fold, the IC50 [5] was greater than 20 µM and the IC50 [6] was 0.3 µM. The IC50 [7] was 2.2 ± 0.2 µM, the “mitochondrial superoxide production, flow cytometry” value (MDA-MB-435 cells [8]) was “induce significant amounts of superoxide” and the IC50 [9] was 4.4 ± 3 µM.
